Test system: Echinochloa crusgalli, Scirpus juncoides, Bidens tripartita L., Sagittaria trifolia; rice (japonica rice)
Test: Transplanted rice safety evaluation and weed control effect evaluation in rice field
Assay type: in vivo
Details: weeds 14 days, rice 21 days after treatment; observed with the naked eye
Description: Rice field soil was loaded into a 1/1,000,000 ha pot. The seeds of Echinochloa crusgalli, Scirpus juncoides, and Bidens tripartita L. were sowed and gently covered with soil, then placed in a greenhouse with water storage of 0.5-1 cm deep. The tuber of Sagittaria trifolia was planted in the next day or 2 days later. The water storage was kept at a depth of 3-4 cm thereafter. The weeds were treated by homogeneously dripping the WP or SC water diluents of the compounds of the present invention prepared according to the common preparation methods with a pipette to the specified effective amount when the Echinochloa crusgalli, Scirpus juncoides, and Bidens tripartita L. reached their 0.5 leaf stages and the Sagittaria trifolia reached the time point of the primary leaf stage.
In addition, the rice field soil that loaded into the 1/1,000,000 ha pot was leveled to keep water storage at a depth of 3-4 cm. […]
The development condition of Echinochloa crusgalli, Scirpus juncoides, Bidens tripartita L., and Sagittaria trifolia 14 days after the treatment of the compound of the invention and the development condition of rice 21 days after the treatment of the compound of the invention were respectively observed with the naked eye. The weed control effect was evaluated according to the above activity level criteria. […]

CC1(C)CON(Cc2ccc(Cl)cc2Br)C1=O [Compound 1] was tested, and the “weed control effect and transplanted rice safety in rice field” value was “excellent activity and selectivity”.

From patent US20240327359A1, “3-ISOXAZOLIDINONE COMPOUND, PREPARATION METHOD, HERBICIDAL COMPOSITION AND APPLICATION THEREOF” (QINGDAO KINGAGROOT CHEMICAL COMPOUND CO., LTD., priority 2021, published 2024)
